Assay results as given in ChEMBL document CHEMBL1201862, “PubChem BioAssay data set” (2004).
Activity calls are given as the source filed them.

Assays:
[1] = Luminescence Cell-Based Dose Retest to Confirm Inhibitors of Cancer Stem Cells. [Related pubchem assays (depositor defined):AID2717, AID2721]; format: functional; details: Homo sapiens
[2] = target: T1, Disintegrin and metalloproteinase domain-containing protein 17 (Homo sapiens, UniProt P78536); assay: ADAM17 protease inhibitors, dose response, counter-screen for ADAM10 exosite inhibitor project, biochemical, quenched FRET substrate (AID 743253)
T1 sequence (P78536 whole entry, the tested form may be a part): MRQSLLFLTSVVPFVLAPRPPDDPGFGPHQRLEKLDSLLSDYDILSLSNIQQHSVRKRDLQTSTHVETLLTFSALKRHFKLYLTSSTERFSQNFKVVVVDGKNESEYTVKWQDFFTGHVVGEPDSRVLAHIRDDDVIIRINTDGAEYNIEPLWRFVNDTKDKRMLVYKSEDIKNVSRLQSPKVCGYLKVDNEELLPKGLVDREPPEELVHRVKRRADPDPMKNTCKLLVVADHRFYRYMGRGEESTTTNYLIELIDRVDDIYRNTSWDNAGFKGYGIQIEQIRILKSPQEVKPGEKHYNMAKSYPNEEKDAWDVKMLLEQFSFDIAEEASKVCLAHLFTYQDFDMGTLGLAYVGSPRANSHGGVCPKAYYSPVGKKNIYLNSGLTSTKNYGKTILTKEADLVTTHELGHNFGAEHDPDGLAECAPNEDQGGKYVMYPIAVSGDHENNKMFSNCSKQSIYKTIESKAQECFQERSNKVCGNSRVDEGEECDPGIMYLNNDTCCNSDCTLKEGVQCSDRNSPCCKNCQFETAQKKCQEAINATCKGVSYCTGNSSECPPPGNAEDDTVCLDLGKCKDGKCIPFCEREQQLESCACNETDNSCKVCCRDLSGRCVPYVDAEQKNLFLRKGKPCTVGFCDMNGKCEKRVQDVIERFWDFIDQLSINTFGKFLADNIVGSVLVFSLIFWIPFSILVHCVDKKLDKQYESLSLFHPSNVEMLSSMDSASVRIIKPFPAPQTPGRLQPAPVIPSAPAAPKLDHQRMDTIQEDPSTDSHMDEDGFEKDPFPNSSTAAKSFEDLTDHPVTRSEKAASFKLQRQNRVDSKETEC

[3] = ADAM10 inhibitors, peptide cleavage, dose response, biochemical, QFRET (AID 743254);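 further: ADAM10 enzyme with the DM2 quenched FRET peptide as substrate; EDANS fluorescence gain as the protease cuts the substrate; inhibitor potency against ADAM10 proteolytic activity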
[4] = target: Complement C1s subcomponent (Homo sapiens, UniProt P09871); assay: Complement C1s ELISA. [Related pubchem assays: 538, 787 ]; format: functional
Complement C1s subcomponent, sequence (P09871 16-437 limits assumed): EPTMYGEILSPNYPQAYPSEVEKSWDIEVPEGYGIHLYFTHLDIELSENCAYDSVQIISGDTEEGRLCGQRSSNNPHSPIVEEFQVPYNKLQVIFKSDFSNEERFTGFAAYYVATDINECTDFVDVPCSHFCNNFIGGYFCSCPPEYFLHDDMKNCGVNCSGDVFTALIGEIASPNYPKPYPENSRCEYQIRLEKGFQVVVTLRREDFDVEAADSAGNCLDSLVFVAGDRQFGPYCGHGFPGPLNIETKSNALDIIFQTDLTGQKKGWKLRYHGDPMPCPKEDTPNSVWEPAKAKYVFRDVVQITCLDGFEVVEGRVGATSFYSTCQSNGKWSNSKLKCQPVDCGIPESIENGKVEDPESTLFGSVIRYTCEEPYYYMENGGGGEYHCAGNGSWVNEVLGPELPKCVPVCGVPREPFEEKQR
Complement C1s subcomponent, sequence (P09871 438-688 limits assumed): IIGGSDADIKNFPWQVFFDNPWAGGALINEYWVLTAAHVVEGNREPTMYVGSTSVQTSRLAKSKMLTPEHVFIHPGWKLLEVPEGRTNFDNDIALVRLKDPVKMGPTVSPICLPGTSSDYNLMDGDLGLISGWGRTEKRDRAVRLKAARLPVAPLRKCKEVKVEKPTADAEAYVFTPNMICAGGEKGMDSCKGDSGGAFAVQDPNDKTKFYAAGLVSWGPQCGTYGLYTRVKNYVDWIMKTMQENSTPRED

[5] = target: RNA-editing ligase 1, mitochondrial (Trypanosoma brucei brucei, UniProt P86926); assay: TbREL1 ligase inhibitors, dose response, biochemical, fluorescence, Trypanosoma brucei (AID 1117295); format: functional
RNA-editing ligase 1, mitochondrial, sequence (P86926 whole entry): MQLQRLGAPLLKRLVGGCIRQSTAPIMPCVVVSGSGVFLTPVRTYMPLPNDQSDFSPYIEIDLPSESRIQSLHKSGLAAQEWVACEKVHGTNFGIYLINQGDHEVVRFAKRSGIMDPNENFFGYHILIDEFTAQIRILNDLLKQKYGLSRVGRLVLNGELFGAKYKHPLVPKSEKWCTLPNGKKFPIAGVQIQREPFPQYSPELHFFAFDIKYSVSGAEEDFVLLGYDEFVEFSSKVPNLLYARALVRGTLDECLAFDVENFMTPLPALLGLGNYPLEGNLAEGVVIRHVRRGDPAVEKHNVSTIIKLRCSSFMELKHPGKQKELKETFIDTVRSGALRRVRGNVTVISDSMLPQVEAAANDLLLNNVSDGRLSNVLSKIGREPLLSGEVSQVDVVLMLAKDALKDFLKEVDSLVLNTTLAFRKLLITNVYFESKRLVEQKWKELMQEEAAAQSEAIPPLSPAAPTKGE

[6] = target: T2, Methionyl-tRNA synthetase, putative (Trypanosoma brucei brucei, UniProt Q38C91); format: functional, Trypanosoma brucei brucei strain 927/4 GUTat10.1
T2 sequence (Q38C91 whole entry): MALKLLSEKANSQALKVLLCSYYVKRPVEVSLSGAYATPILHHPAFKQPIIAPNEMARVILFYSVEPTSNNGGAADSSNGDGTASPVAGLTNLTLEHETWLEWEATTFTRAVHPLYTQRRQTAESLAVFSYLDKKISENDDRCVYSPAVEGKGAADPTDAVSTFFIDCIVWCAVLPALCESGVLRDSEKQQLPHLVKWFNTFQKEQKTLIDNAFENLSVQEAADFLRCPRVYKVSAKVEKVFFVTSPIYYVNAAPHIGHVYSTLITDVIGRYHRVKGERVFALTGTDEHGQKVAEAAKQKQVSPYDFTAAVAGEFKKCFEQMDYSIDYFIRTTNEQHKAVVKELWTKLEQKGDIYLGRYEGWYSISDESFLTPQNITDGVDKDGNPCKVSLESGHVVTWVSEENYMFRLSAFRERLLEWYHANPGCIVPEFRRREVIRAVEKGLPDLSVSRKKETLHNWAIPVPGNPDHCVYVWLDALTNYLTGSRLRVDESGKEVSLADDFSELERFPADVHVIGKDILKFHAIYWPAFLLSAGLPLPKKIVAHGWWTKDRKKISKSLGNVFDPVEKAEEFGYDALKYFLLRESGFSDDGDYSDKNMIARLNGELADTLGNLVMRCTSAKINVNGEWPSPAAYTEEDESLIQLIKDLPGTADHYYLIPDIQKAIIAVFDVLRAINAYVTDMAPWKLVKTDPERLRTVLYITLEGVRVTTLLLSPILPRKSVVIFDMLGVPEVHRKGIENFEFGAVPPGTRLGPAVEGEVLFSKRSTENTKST

[7] = Late stage counterscreen for inhibitors of Trypanosoma brucei methionyl tRNA synthetase (MetRS): Luminescence-based cell-based high throughput dose response assay to identify compounds that are cytotoxic to Jurkat human T lymphocyte cells.; format: functional
[8] = Counterscreen for inhibitors of Trypanosoma brucei methionyl tRNA synthetase (MetRS): Luminescence-based cell-based high throughput dose response assay to identify compounds that are cytotoxic to Jurkat human T lymphocyte cells.; format: functional
[9] = target: T2, Methionyl-tRNA synthetase, putative; format: functional, Trypanosoma brucei brucei strain 927/4 GUTat10.1; remark: listed apart in the source
[10] = HepG2 cell cytotoxicity, dose response, cytotoxicity control, dry powder samples (AID 720568); format: functional, cell-based
[11] = ADAM10 protease inhibitors, dose response, selectivity assay for ADAM17 exosite inhibitor project, biochemical, FRET peptide substrate, recombinant human ADAM10 (AID 743259);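 further: ADAM10 enzyme cleaving a FRET peptide substrate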
[12] = target: T1, Disintegrin and metalloproteinase domain-containing protein 17; assay: exosite inhibitors of ADAM17, dose response, biochemical (AID 743260)
[13] = HepG2 cell cytotoxicity, dose response, cytotoxicity control, ATP luminescence, cherry-pick, set 6 (AID 1053125); format: functional, cell-based
cells [14] = details: A549
[15] = A Cell-Based Confirmatory Screen for Compounds that Inhibit VEEV, TC-83 (5).; format: functional
[16] = A Cell-Based Confirmatory Screen for Compounds that Inhibit VEEV TC-83 (4).; format: functional
[17] = A375 melanoma cell cytotoxicity, dose response, counter-screen for MITF inhibitor project, CellTiter-Glo luminescence, dry powder, set 2 (AID 624489); format: functional, cell-based; details: A-375;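 further: actives are compounds lowering A375 viability meaning general cytotoxicity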
[18] = A375 melanoma cell viability loss, dose response, counter-screen for MITF inhibitor project, CellTiter-Glo luminescence, dry powder, set 4 (AID 624364); format: functional, cell-based; details: A-375;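 further: A375 melanoma cells are MITF independent so this is a counter screen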
Vasopressin V2 receptor = Vasopressin V2 receptor (Homo sapiens, UniProt P30518); assay: Late-stage results from the probe development effort to identify antagonists of arginine vasopressin receptor 1a (AVPR1a): fluorescence-based cell-based dose response AVPR2 inhibition counterscreen assay.; format: functional
[19] = Late-stage results from the probe development effort to identify antagonists of arginine vasopressin receptor 1a (AVPR1a): fluorescence-based cell-based dose response OXTR inhibition counterscreen assay.; format: functional
[20] = Late-stage results from the probe development effort to identify antagonists of arginine vasopressin receptor 1a (AVPR1a): fluorescence-based cell-based dose response AVPR1a inhibition assay.; format: functional
Vasopressin V1b receptor = Vasopressin V1b receptor (Homo sapiens, UniProt P47901); assay: Late-stage results from the probe development effort to identify antagonists of arginine vasopressin receptor 1a (AVPR1a): fluorescence-based cell-based dose response AVPR1b inhibition counterscreen assay.; format: functional
Vasopressin V1b receptor, sequence (P47901 whole entry): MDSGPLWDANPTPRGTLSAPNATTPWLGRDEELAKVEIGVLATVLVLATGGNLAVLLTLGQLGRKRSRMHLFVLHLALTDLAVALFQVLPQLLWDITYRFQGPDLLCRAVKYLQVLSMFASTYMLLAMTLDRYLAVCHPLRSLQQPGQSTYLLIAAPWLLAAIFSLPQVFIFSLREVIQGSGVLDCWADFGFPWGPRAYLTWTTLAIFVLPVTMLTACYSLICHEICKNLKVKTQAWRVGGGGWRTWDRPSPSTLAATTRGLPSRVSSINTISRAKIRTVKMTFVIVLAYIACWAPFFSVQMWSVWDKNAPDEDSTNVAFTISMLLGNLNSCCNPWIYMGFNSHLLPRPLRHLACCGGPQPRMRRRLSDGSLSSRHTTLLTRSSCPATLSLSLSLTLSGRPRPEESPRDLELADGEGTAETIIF

[21] = inhibitors of Vif binding to APOBEC3G peptide, primary screen, biochemical, TR-FRET, GST-Vif 1-94, biotin-A3G peptide, dose response retest (AID 1117319); format: functional;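 further: TR-FRET signal of purified GST-Vif binding a biotinylated A3G peptide; inhibitors lower the FRET signal by blocking Vif and A3G binding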
[22] = target: E3 ubiquitin-protein ligase Mdm2 (Homo sapiens, UniProt Q00987); assay: enhancers of MDM2-luciferase reporter signal, concentration-effect titration, project on inhibitors of MDM2 ubiquitin ligase, cellular assay, luminescent readout, 384-well plate format (AID 1394); format: functional;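 further: MDM2 E3 inhibitors raise luminescence so EC50 is for signal enhancement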
E3 ubiquitin-protein ligase Mdm2, sequence (Q00987 whole entry): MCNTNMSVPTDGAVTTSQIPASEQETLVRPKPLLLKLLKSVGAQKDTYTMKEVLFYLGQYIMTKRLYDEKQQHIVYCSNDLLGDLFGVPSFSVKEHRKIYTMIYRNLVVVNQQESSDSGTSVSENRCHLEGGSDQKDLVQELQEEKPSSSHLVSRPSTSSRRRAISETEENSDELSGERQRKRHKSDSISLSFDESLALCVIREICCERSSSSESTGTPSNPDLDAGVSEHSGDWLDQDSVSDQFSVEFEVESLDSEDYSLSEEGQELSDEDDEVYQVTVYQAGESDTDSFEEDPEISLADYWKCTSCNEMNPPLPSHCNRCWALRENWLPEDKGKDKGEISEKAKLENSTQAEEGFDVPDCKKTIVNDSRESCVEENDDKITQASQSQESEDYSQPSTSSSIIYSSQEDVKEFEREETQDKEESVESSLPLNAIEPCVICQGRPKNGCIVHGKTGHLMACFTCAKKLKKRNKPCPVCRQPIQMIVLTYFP

cells [23] = format: functional, cell-based
Nonstructural protein 1 = Nonstructural protein 1 (Influenza A virus, UniProt Q194T2); format: functional, Influenza A virus (A/California/07/2009(H1N1))
Nonstructural protein 1, sequence (Q194T2 whole entry): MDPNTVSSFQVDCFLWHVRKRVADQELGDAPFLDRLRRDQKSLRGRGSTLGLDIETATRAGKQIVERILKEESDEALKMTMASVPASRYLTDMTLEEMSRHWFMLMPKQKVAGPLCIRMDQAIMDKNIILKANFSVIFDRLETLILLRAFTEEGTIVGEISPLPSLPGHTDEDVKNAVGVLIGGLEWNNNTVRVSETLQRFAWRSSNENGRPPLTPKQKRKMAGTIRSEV

[24] = target: T3, Kappa-type opioid receptor (Homo sapiens, UniProt P41145); format: functional
T3 sequence (P41145 whole entry): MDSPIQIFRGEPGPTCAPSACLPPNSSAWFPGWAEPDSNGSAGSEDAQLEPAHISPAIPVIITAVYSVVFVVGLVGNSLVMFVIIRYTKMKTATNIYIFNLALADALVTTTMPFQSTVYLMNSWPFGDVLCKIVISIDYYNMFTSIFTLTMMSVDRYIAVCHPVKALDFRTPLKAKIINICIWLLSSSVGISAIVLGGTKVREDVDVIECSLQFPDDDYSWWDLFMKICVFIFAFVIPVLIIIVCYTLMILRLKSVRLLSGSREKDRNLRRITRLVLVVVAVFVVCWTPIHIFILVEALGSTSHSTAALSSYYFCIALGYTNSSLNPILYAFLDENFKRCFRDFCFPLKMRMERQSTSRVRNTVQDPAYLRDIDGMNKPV

Beta-galactosidase = Beta-galactosidase (Escherichia coli, UniProt Q8VNN2); format: functional
[25] = target: T3, Kappa-type opioid receptor; format: functional; remark: listed apart in the source
cells [26] = format: functional, cell-based; remark: listed apart in the source
[27] = half-maximal inhibitory concentration for glucagon-like peptide-1 release, STC-1 cell line, dose-response (AID 1117345); format: functional, cell-based
[28] = Glucagon-like peptide 1 release potency, NCI-H716 cell line, dose-response, half-maximal inhibitory concentration (AID 1117344); format: functional, cell-based
[29] = target: T4, Low molecular weight phosphotyrosine protein phosphatase (Homo sapiens, UniProt P24666); assay: LMPTP phosphatase inhibitors, colorimetric pNPP readout, dose response, orthogonal assay, biochemical, absorbance, pNPP substrate, LMPTP-A isoform, set 2 (AID 743308); format: functional
T4 sequence (P24666 whole entry): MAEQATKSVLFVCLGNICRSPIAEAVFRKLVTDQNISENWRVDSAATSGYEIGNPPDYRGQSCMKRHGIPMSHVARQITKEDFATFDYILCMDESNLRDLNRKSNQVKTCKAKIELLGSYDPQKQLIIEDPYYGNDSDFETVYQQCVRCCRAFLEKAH

[30] = target: T4, Low molecular weight phosphotyrosine protein phosphatase; assay: LMPTP phosphatase inhibitors, dose response, biochemical, OMFP substrate, fluorescence intensity, set 2 (AID 743307); format: functional
[31] = M. tuberculosis growth inhibition, HTS (AID 449762); format: functional
[32] = target: Induced myeloid leukemia cell differentiation protein Mcl-1 (Homo sapiens, UniProt Q07820); assay: MCL1-BIM BH3 interaction inhibitors, dose response, biochemical, fluorescence polarization, BIM-BH3 peptide, 1536-well (AID 2217)
Induced myeloid leukemia cell differentiation protein Mcl-1, sequence (Q07820 whole entry): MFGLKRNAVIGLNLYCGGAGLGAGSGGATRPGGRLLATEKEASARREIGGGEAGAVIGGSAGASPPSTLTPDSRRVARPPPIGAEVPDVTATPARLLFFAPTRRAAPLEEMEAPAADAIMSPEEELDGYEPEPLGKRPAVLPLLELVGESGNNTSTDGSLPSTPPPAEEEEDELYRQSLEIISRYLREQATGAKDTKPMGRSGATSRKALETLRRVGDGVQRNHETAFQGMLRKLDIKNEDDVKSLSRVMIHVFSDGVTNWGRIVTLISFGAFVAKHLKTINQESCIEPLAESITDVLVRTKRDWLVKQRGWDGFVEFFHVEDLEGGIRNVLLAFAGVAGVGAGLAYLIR

Caspase-8 = Caspase-8 (Homo sapiens, UniProt Q14790); assay: caspase-8 inhibition counter-screen, dose response, selectivity assay for caspase-6 inhibitor project, biochemical, Z-IETD-R110 fluorescence, cherry-picked samples (AID 743294)
Caspase-8, sequence (Q14790 217-374 limits assumed): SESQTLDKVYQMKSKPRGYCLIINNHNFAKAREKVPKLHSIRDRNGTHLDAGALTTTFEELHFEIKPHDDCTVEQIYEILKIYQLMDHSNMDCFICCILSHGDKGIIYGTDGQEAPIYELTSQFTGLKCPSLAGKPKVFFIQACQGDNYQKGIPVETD
Caspase-8, sequence (Q14790 385-479 limits assumed): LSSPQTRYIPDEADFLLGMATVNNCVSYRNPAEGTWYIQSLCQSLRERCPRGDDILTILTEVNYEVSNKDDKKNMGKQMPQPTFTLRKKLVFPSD

Caspase-6 = target: T5, Caspase-6 (Homo sapiens, UniProt P55212); assay: human caspase-6 inhibitors, dose response, biochemical, VEID-R110 fluorescence, cherry-pick (AID 720632)
T5 sequence (P55212 whole entry): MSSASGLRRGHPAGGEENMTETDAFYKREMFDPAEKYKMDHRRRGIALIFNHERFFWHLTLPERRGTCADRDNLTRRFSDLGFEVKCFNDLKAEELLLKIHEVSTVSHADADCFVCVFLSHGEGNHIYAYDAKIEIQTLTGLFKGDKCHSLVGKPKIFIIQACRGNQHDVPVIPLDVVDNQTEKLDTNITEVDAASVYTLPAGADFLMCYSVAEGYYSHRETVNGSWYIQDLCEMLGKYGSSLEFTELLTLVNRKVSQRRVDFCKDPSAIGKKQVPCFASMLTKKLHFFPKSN

Bcl-2-like protein 1 = Bcl-2-like protein 1 (Homo sapiens, UniProt Q07817); assay: BCL-XL inhibitors, dose response, selectivity assay for MCL1 inhibitor project, biochemical, fluorescence polarization, 1536-well (AID 2218)
Bcl-2-like protein 1, sequence (Q07817 whole entry): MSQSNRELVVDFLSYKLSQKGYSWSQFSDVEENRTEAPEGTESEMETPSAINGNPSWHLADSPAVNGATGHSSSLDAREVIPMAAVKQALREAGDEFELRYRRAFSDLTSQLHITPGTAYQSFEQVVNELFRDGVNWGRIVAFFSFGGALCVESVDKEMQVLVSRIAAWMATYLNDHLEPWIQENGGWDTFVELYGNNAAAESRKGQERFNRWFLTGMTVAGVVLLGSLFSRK

Caspase-7 = Caspase-7 (Homo sapiens, UniProt P55210); assay: human caspase-7 inhibitors, dose response, selectivity assay for caspase-6 inhibitor project, biochemical, DEVD-R110 fluorescence, cherry-pick (AID 743295)
Caspase-7, sequence (P55210 24-198 limits assumed): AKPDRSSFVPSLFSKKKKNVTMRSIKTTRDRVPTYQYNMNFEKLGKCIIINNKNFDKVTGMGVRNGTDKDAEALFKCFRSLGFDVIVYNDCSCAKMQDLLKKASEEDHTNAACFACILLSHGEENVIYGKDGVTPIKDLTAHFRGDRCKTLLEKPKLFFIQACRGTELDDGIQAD
Caspase-7, sequence (P55210 207-303 limits assumed): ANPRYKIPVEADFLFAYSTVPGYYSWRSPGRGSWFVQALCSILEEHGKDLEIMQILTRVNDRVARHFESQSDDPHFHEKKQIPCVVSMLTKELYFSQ

[33] = HIF luciferase reporter inhibitors, dose response, ARNT-TACC3 inhibitor project, cell-based, dry powder samples, luminescence, 2158-07 (AID 720561); format: functional
P388 = assay: cells; format: functional; details: Mus musculus
[34] = SNU-C1 cell viability reduction, dose response, CellTiter-Glo luminescence (AID 1117323); format: functional, cell-based
SN12K1 = assay: cells; format: functional; details: Homo sapiens
[35] = HeLa 4N DNA content increase, dose response, cell-based, IC50 (AID 1117351); format: functional
[36] = HeLa 2N DNA content increase, dose response, cell-based, IC50 (AID 1117349); format: functional
P388/ADR = assay: cells; format: functional; details: Mus musculus

Cc1cc(C)cc(NS(=O)(=O)c2ccc(Oc3ncc(C(F)(F)F)cc3Cl)cc2)c1
AC50 [1]: 2.09 µM (active) | IC50 [2]: > 69.5 µM (inactive) | IC50 [3]: 12 µM (inactive)

O=c1c(-c2ccco2)[n+]([O-])c2ccccc2n1OCc1ccccn1
IC50 [4]: > 50 µM (not active)

Clc1ccc(CN=C(Nc2ccccc2)NC2CCCCC2)cc1
IC50 [5]: > 96.6 µM (inactive)

CN(Cc1cc(Cl)cc(Cl)c1)[C@H]1C[C@H]2c3[nH]c4ccccc4c3CCN2C(=O)[C@H]1CO
IC50 [6]: 1.33 µM (active) | IC50 [7]: 31.7 µM (inactive) | IC50 [8]: 80.2 µM (inactive) | IC50 [9]: 1.64 µM (active)

O=C1CCN(Cc2ccccc2)c2cc3ccccc3cc21
AC50 [10]: > 30 µM (inactive)

COc1ccc(CNC(=O)CN(Cc2ccc(Cl)cc2)S(=O)(=O)c2ccccc2)cc1
IC50 [11]: > 69.5 µM (inactive) | IC50 [12]: > 69.5 µM (inactive)

O=C(NNc1c2ccccc2nc2ccccc12)c1ccc(O)cc1
AC50 [13]: > 52 µM (inactive) | AC50 (cells [14]): > 52 µM (inactive)

CCN1CCN(Cc2nc3ccc([N+](=O)[O-])cc3c(=O)n2-c2cccc(F)c2)CC1
IC50 [15]: 0.45 µM (active) | IC50 [16]: 0.31 µM (active)

O=C1C(Nc2ccccc2)=C(N2CCN(c3ccccc3)CC2)C(=O)c2ccccc21
AC50 [17]: > 70 µM (inactive) | AC50 [18]: > 70 µM (inactive)

O=C(C1CCN(c2ccc(C(F)(F)F)cn2)CC1)N(CC1CC1)c1ccc(Cl)cc1
IC50 (Vasopressin V2 receptor): 19.3 µM (inactive) | IC50 [19]: 12.6 µM (inactive) | IC50 [20]: 0.123 µM (active) | IC50 (Vasopressin V1b receptor): 31.7 µM (inactive)

Cc1noc(C)c1C(=O)N1CCc2ccccc2C1
IC50 [21]: > 100 µM (active)

O=C(CSC1=NNC(c2ccccn2)S1)Nc1ccc(C(F)(F)F)cc1 (stereo not drawn)
EC50 [22]: 43.2 µM (not active) | EC50 (cells [23]): 15.6 µM (active) | AC50 [1]: 3.51 µM (active) | IC50 (Nonstructural protein 1): 7.8 µM (active) | IC50 [24]: > 31.5 µM (inactive) | EC50 (Beta-galactosidase): > 31.5 µM (inactive) | IC50 [25]: > 32 µM | EC50 (cells [26]): > 350 µM (not active)

CCCCCCCC/C=C\CCCCCCCCN
IC50 [27]: > 40 µM (inactive) | IC50 [28]: 14.8 µM (inactive)

c1ccc(-c2nc(N3CCSCC3)c3ccccc3n2)cc1
IC50 [29]: > 80 µM (inactive) | IC50 [30]: > 80 µM (inactive)

CC1(c2ccc(Cl)c(Cl)c2)N=C(S)N2C1N=C(S)N2c1ccccc1 (stereo not drawn)
IC50 [31]: > 100 µM (active)

CCCCN(C(=O)c1cccc(-n2cccc2)c1)c1c(N)n(CCC)c(=O)[nH]c1=O
IC50 [32]: > 12.1 µM (not active) | AC50 (Caspase-8): > 70 µM (inactive) | AC50 (Caspase-6): 1.93 µM (active) | IC50 (Bcl-2-like protein 1): > 109 µM (not active) | AC50 (Caspase-7): 51.2 µM (active)

Cc1nnc(NC(=O)c2ccc(S(=O)(=O)N3CCCCC3)cc2)o1
AC50 [33]: > 100 µM (inactive)

CN(Cc1cnc2nc(N)nc(N)c2n1)c1ccc(C(=O)N[C@@H](CCC(=O)O)C(=O)O)cc1 [METHOTREXATE]
GI50 (P388): 0.025 µM (active) | IC50 [34]: > 20 µM (inactive) | GI50 (SN12K1): 0.025 µM (active) | IC50 [35]: > 10 µM (inactive) | IC50 [36]: > 10 µM (inactive) | GI50 (P388/ADR): 0.025 µM (active)
